The results in this text go back to ChEMBL document CHEMBL1146985, “Investigation of the mechanism of action of 3-(4-bromophenyl)-5-acyloxymethyl-2,5-dihydrofuran-2-one against Candida albicans by flow cytometry” (Bioorg Med Chem Lett, 2006).

Calls of active or inactive are those of the source. No cut-off for these calls is given here.

Test [1] deals with Candida albicans. Kind of test: Antifungal activity against Candida albicans ATCC 90028 at 100 ug/ml. Type of test: functional, organism-based.
Test [2] concerns Candida albicans. Briefly: Antifungal activity against Candida albicans ATCC 90028 at 10 ug/ml. It counts as functional, organism-based.

On to `O=C1OC(CO)C=C1c1ccc(Br)cc1` (configuration not stated), for which, in the test on Candida albicans [1], the result was Active.

For `CC(=O)OCC1C=C(c2ccc(Br)cc2)C(=O)O1` (configuration not stated), in the test on Candida albicans [2], the outcome was Active.
